Holding throughout (type): in vivo
For experiment [1], the system named is Prunus avium (Napoleon). Kind of experiment: Prunus avium leaf coating with GSSG, sensory test of fruit (Example 8). As to conditions: leaf surface coated with 0.5 mM 4 weeks and 3 weeks before harvest. The protocol:
(§1) In the present example, Prunus avium was cultivated. Specifically, 4 weeks and 3 weeks before an expected date of harvesting Prunus avium (Napoleon) fruit, a surface of a leaf on a branch having the fruit to be harvested was coated with 0.5 mM GSSG. The fruit was harvested on the expected date.
(§2) Next, the fruit harvested was subjected to a sensory test of sugar content. As a result, it was determined that the fruit applied with GSSG increased in sugar content and decreased in acidity. Further, it was determined that the fruit applied with GSSG increased in weight. Furthermore, the fruit obtained was subjected to sugar content determination using “Pocket” Refractometer APAL-1 (ATAGO CO., LTD.). For comparison, fruit applied with no GSSG was also subjected to the sugar content determination. […] In FIG. 5, the vertical scale indicates sugar content (Brix, unit: %).

The test system of experiment [2] is Prunus avium (Napoleon). Nature of the experiment: Sugar content determination of Prunus avium fruit with refractometer (Example 8). Conditions: leaf surface coated with 0.5 mM 4 and 3 weeks before harvest; vs no GSSG; ANOVA 5%. The protocol: as §1, §2
Experiment [3] deals with Citrus unshiu. Nature of the experiment: Sugar content determination of Citrus unshiu fruit with refractometer (Example 9). Conditions: leaf surface coated with 0.5 mM one week before harvest; vs no GSSG; ANOVA 5%. The protocol:
(§3) In the present example, Citrus unshiu was cultivated. Specifically, one week before an expected date of harvesting Citrus unshiu fruit, a surface of a leaf on a branch having the fruit to be harvested was coated with 0.5 mM GSSG. The fruit was harvested on the expected date.
(§4) Next, the fruit harvested was subjected to a sensory test of sugar content. As a result, it was determined that the fruit applied with GSSG increased in sugar content and decreased in acidity. Further, it was determined that the fruit applied with GSSG increased in weight. Furthermore, the fruit obtained was subjected to sugar content determination using “Pocket” Refractometer APAL-1 (ATAGO CO., LTD.). For comparison, fruit applied with no GSSG was also subjected to the sugar content determination. […] In FIG. 6, the vertical scale indicates sugar content (Brix, unit: %).

In another experiment the test system is Fragaria ananassa. Kind of experiment: Sugar content determination of Fragaria ananassa fruit with refractometer (Example 10). As to conditions: 50 mL of 0.2 or 0.5 mM GSSG, or 0.4 or 0.5 mM GSH, once a week at root; significance level 5%. As for the experimental part: First, Fragaria ananassa seedlings were transplanted to a planter. In the planter, 6 L of vermiculite (ASAHI INDUSTRIES Co., LTD.), 3 L of KUREHA horticultural soil (KUREHA CORPORATION), and 3 L of vermiculite were layered as a lower, middle, and upper layers, respectively.
During cultivation of Fragaria ananassa plants, 50 mL of 0.2 mM or 0.5 mM GSSG or 50 mL of 0.4 mM or 0.5 mM GSH (adjusted with 0.1N NaOH to be at pH7) was applied once a week at a root per plant. The plants were grown for 63 days without being subjected to bud removal. For comparison, a Fragaria ananassa plant was grown under the same condition, except that GSSG and GSH were not applied. To the plants of any condition, 3 g of Kumiai phosphorate ammonium nitrate potassium S-604 (Chisso Asahi Fertilizer Co., Ltd.) was applied as an additional fertilizer once in 2 weeks.
Further, the fruit obtained was subjected to sugar content determination using “Pocket” Refractometer APAL-1 (ATAGO CO., LTD.). For comparison, fruit not applied with GSSG or GSH was also subjected to the sugar content determination. […] In FIG. 7, the vertical scale indicates sugar content (Brix, unit: %).

Experiment [4] deals with Vitis labrusca (Delaware). Nature of the experiment: Cultivation of Vitis labrusca with GSSG or GSH, sensory test (Example 5). The protocol: In the present invention, Vitis labrusca was cultivated. Specifically, immediately after flowering of a Vitis labrusca (Delaware) plant, a mixed solution of 1 mM gibberellin (GA3) and 1 mM of an agent was applied to anthotaxy of the plant. The agent was GSSG or GSH. Then, the plant was coated with the agent and thereafter produced fruit was harvested. For comparison, a Vitis labrusca plant was cultivated in the same way, except that GA3, but not GSSG or GSH, was applied, and fruit thereof was harvested and subjected to a sensory test described below.
The fruit harvested was subjected to a sensory test of sugar content. As a result, it was determined that fruit of the plant applied with GA3 and GSSG or GSH increased in sugar content compared to that of the plant applied with only GA3. Further, it was determined that the plant applied with GSSG and GA3 increased in size of fruit.

In experiment [5] the test system is Zea mays L. var. saccharata Sturt. Kind of experiment: Cultivation of Zea mays L. var. saccharata Sturt with GSSG, sensory test (Example 4). Conditions: 200 mL of 0.5 mM at root twice a week for 12 weeks. The text has this:
In the present example, Zea mays L. var. saccharata Sturt was cultivated under a condition different from Example 3 in how to apply GSSG. First, a Zea mays L. var. saccharata Sturt seed (TAKII & CO. Ltd., product number: Canberra 90) was sown in vermiculite (ASAHI INDUSTRIES Co., LTD.). One week after sowing, a Zea mays L. var. saccharata Sturt plant was transplanted to a hydroponic culture pot described in Example 1. To the plant, 3 g of Kumiai phosphorate ammonium nitrate potassium S-604 (Chisso Asahi Fertilizer Co., Ltd.) was applied as an additional fertilizer 4 weeks and 6 weeks after the sowing.
During 12 weeks after germination, 200 mL of 0.5 mM GSSG was applied at a root of the plant twice a week. For comparison, a Zea mays L. var. saccharata Sturt plant was cultivated by the same method as in the present example, except that GSSG was not applied, and fruit thereof was harvested.
Fruit was harvested 12 weeks after the sowing and subjected to a sensory test of sugar content. As a result, it was determined that fruit of the plant applied with GSSG increased in sugar content compared to that of the plant applied with no GSSG. Further, it was determined that the plant applied with GSSG increased in size and number of fruit.

Experiment [6] deals with Citrus unshiu. Nature of the experiment: Citrus unshiu leaf coating with GSSG, sensory test of fruit (Example 9). Conditions: leaf surface coated with 0.5 mM one week before harvest. The protocol:
as §3, §4

With oxidized glutathione [GSSG], the “acidity of fruit (sensory test)” value with Prunus avium (Napoleon) [1] and with Citrus unshiu [6] was “decreased” in each case. In addition, the “sugar content of fruit (sensory test)” value in the experiment with Prunus avium (Napoleon) [1] was “increased”; in experiment [4] (1 mM agent mixed with 1 mM gibberellin (GA3), applied to anthotaxy, compared to plant applied with only GA3), “increased”; in experiment [5] (vs no GSSG), “increased”; in the experiment with Citrus unshiu [6] it was “increased”. For the same substance, the weight of fruit entry in the experiment on Prunus avium (Napoleon) [1] and with Citrus unshiu [6] was “increased” in each case. The “sugar content of fruit (Brix)” value with Prunus avium (Napoleon) [2] and in the experiment on Citrus unshiu [3] was “significantly improved” throughout. The “sugar content of fruit (Brix), ANOVA versus fruit not applied” value in the experiment with Fragaria ananassa is reported as “significant difference”. In addition, the size of fruit entry in experiment [4] (1 mM agent mixed with 1 mM GA3, applied to anthotaxy) was “increased”; in experiment [5], “increased”. Further, the sugar content result in experiment [4] (applied without GA3) is “increased”. Moreover, the number of fruit result in experiment [5] was “increased”.

Values taken from US8524978B2, “Composition for production of plant body having improved sugar content, and use thereof” (Japan Science and Technology Agency, priority 2007, dated 2013).
